Papp and IC50 data for 27 molecules are collected here from US11795195B2, “Antibody-drug conjugates including hemiasterlin derivative” (Sumitomo Pharma Co., Ltd., priority 2017, dated 2023).

Data set [1] can be described thus: Membrane Permeability Test, parallel artificial membrane permeability assay (PAMPA). The conditions noted are these: pH 7.4, pH7.4, 37° C., read-out: Pe (pH7.4). The data set is classed as in vitro ADME. On the procedure: By the parallel artificial membrane permeability assay (PAMPA), the membrane permeability of compounds of Examples was examined as follows: To the donor plate, System solution (pION inc.) and GIT Lipid-0 (pION inc.) were added in an amount of 200 μL and 4 μL for each well, respectively. To the acceptor plate, Acceptor Sink Buffer (pION inc.) was added in an amount of 200 μL. Both plates were superposed and incubated at 37° C. for 4 hours, and then, UVs in the solutions on the side of acceptor and on the side of donor were measured with an UV plate reader (190 to 500 nm). Compounds with poor UV absorption were measured by LC-MS. The permeability coefficient Pe (10^−6 cm/sec) of the drug was calculated by the following formula.
[formula] • ra=(VD/VA)Pa^(A-D)/Pa^(D-A)=rVPe^(A-D)/Pa^(D-A) • rV=(VD/VA) • VD=volume of doner well • VA=volume of acceptor well • t=permeation time • τ^SS=steady state time • R=retention • CD=CA=concentration in donor and acceptor well
(The PAMPA barrier holds no transporters, so it reflects passive diffusion.)

Data set [2] deals with Karpas-299 cells. Briefly: Cellular Toxicity Test (1), CellTiter-Glo cell viability. The conditions noted are these: Homo sapiens, 96 h, cultured 4 days, cell viability. It is filed as cell-based, human. On the procedure:
Karpas-299 cells (European Collection of Authenticated Cell Cultures, hereinafter, ECACC), which are human lymphoma cell lines, were cultured in RPMI 1640 (GIBCO) containing 10% fetal bovine serum (MP Biomedicals) (hereinafter, referred to as the “culture medium”). Cells were prepared to be 2×10^6 cells/mL in the culture medium, and were added to a 96 well microplate for cell culturing in an amount of 50 μL for each well. Compounds of Examples or Comparative Example compound 4 times diluted with the culture medium in 8 stages were added to the microplate in an amount of 50 μL for each well. These were cultured at 37 degree under 5% CO2 for 4 days. After culturing, the microplate was taken out from the incubator, and was left at rest at room temperature for 10 minutes. To each well, 50 μL of CellTiter-Glo Luminescent Cell Viability Assay (Promega) was added, and the resultant mixture was stirred. This mixture was incubated at a dark place for 20 minutes. Using a microplate luminometer, luminescence at each well was measured, thereby calculating the cell viability. In addition, from the value of cell viability, the IC50 value was calculated.
The IC50 value was calculated by the following formula: IC50 (nM)=antilog(LOG10(a/b)×(e−d)/(c−d)+LOG10b) a: concentration a of test substance b: concentration b of test substance c: cell viability upon adding test substance with concentration a d: cell viability upon adding test substance with concentration b e: intermediate value between maximum and minimum among cell viabilities upon adding test substances with different concentrations (a and b are concentrations crossing the cell viability e, and a>b is indicated).
The cell viability at each concentration was calculated by the following formula: Cell Viability (%)=a′/b′×100 a′: mean value of luminescence amount of wells to which test substance was added (n=6) b′: mean value of luminescence amount of wells to which test substance was not added (n=6) (n represents the number of evaluations performed per test substance concentration).
In general terms: ATP-based viability assays read luminescence as a measure of living cells.

SMILES strings stand for the structures.

As a reminder, the IC50 is the concentration at which inhibition is half-maximal. A high value points to lower potency. As to `CN[C@H](C(=O)N[C@H](C(=O)N(C)[C@H](/C=C(\C)C(=O)N[C@H](CCC(=O)N[C@@H](CCCCNC(=O)CCCCCN1C(=O)C=CC1=O)C(=O)O)C(=O)O)C(C)C)C(C)(C)C)C(C)(C)c1cn(C)c2ccccc12` [Example M2, N-{(2E,4S)-2,5-Dimethyl-4-[methyl(N,β,β,1-tetramethyl-L-tryptophyl-3-methyl-L-valyl)amino]hex-2-enoyl}-D-γ-glutamyl-N^6-[6-(2,5-dioxo-2,5-dihydro-1H-pyrrol-1-yl)hexanoyl]-L-lysine], the Papp at 4 h in data set [1] is < 0.1 ×10⁻⁶ cm/s. Also, the half-inhibitory concentration (IC50) in data set [2] worked out at 780 nM.
For `CN[C@H](C(=O)N[C@H](C(=O)N(C)[C@H](/C=C(\C)C(=O)N[C@H](CC(=O)NCCN1C(=O)C=CC1=O)C(=O)O)C(C)C)C(C)(C)C)C(C)(C)c1ccccc1` [Example M9] the same measures were < 0.1 ×10⁻⁶ cm/s and 576 nM.
For `CN[C@H](C(=O)N[C@H](C(=O)N(C)[C@H](/C=C(\C)C(=O)N[C@@H](CC(=O)NCCN1C(=O)C=CC1=O)C(=O)O)C(C)C)C(C)(C)C)C(C)(C)c1ccccc1` [Example M10] the same measures were < 0.1 ×10⁻⁶ cm/s and 544 nM.
For `CN[C@H](C(=O)N[C@H](C(=O)N(C)[C@H](/C=C(\C)C(=O)N[C@@H](CCC(=O)NCCN1C(=O)C=CC1=O)C(=O)O)C(C)C)C(C)(C)C)C(C)(C)c1ccccc1` [Example M11] the same measures were < 0.1 ×10⁻⁶ cm/s and > 1000 nM.
Turning to `CN[C@H](C(=O)N[C@H](C(=O)N(C)[C@H](/C=C(\C)C(=O)N[C@@H](CCC(=O)O)C(=O)NCCN1C(=O)C=CC1=O)C(C)C)C(C)(C)C)C(C)(C)c1ccccc1` [Example M12], the Papp at 4 h in data set [1] is < 0.1 ×10⁻⁶ cm/s. Further, in data set [2], it took 29.8 nM to reach half-maximal inhibition (IC50).
For `CN[C@H](C(=O)N[C@H](C(=O)N(C)[C@H](/C=C(\C)C(=O)N[C@H](CC(=O)O)C(=O)NCCN1C(=O)C=CC1=O)C(C)C)C(C)(C)C)C(C)(C)c1ccccc1` [Example M13], in data set [2], the IC50 was found to be 999 nM.
On the same count and under the same terms, under `CN[C@H](C(=O)N[C@H](C(=O)N(C)[C@H](/C=C(\C)C(=O)N[C@@H](CC(=O)O)C(=O)NCCN1C(=O)C=CC1=O)C(C)C)C(C)(C)C)C(C)(C)c1ccccc1` [Example M14] stands > 1000 nM; under `CN[C@H](C(=O)N[C@H](C(=O)N(C)[C@H](/C=C(\C)C(=O)N[C@H](CCC(=O)O)C(=O)NCCN1C(=O)C=CC1=O)C(C)C)C(C)(C)C)C(C)(C)c1ccccc1` [Example M15], > 1000 nM.
The same measure, in the same setting: the figure for `CN[C@H](C(=O)N[C@H](C(=O)N(C)[C@H](/C=C(\C)C(=O)N[C@H](CCC(=O)NCCCN1C(=O)C=CC1=O)C(=O)O)C(C)C)C(C)(C)C)C(C)(C)c1ccccc1` [Example M16] is 573 nM.
Take `CN[C@H](C(=O)N[C@H](C(=O)N(C)[C@H](/C=C(\C)C(=O)N[C@H](CCC(=O)NCCCCN1C(=O)C=CC1=O)C(=O)O)C(C)C)C(C)(C)C)C(C)(C)c1ccccc1` [Example M17]: in data set [1], the Papp at 4 h was < 0.1 ×10⁻⁶ cm/s. In data set [2], half-maximal inhibition (IC50) was put at 35 nM.
For `CN[C@H](C(=O)N[C@H](C(=O)N(C)[C@H](/C=C(\C)C(=O)N[C@@H](CCC(=O)NCCN1C(=O)C=CC1=O)C(=O)O)C(C)C)C(C)(C)C)C(C)(C)c1cn(C)c2ccccc12` [Example M18] the same measures were < 0.1 ×10⁻⁶ cm/s and 148 nM.
For `CN[C@H](C(=O)N[C@H](C(=O)N(C)[C@H](/C=C(\C)C(=O)N[C@@H](CC(=O)NCCN1C(=O)C=CC1=O)C(=O)O)C(C)C)C(C)(C)C)C(C)(C)c1cn(C)c2ccccc12` [Example M19] the same measures were < 0.1 ×10⁻⁶ cm/s and 169 nM.
For `CN[C@H](C(=O)N[C@H](C(=O)N(C)[C@H](/C=C(\C)C(=O)N[C@H](CC(=O)NCCN1C(=O)C=CC1=O)C(=O)O)C(C)C)C(C)(C)C)C(C)(C)c1cn(C)c2ccccc12` [Example M20] the same measures were < 0.1 ×10⁻⁶ cm/s and 406 nM.
In the case of `CN[C@H](C(=O)N[C@H](C(=O)N(C)[C@H](/C=C(\C)C(=O)N[C@@H](CC(=O)O)C(=O)NCCN1C(=O)C=CC1=O)C(C)C)C(C)(C)C)C(C)(C)c1cn(C)c2ccccc12` [Example M21], the Papp at 4 h in data set [1] was < 0.1 ×10⁻⁶ cm/s. The same molecule came in with an IC50 in data set [2] of 226 nM.
For `CN[C@H](C(=O)N[C@H](C(=O)N(C)[C@H](/C=C(\C)C(=O)N[C@@H](CCC(=O)O)C(=O)NCCN1C(=O)C=CC1=O)C(C)C)C(C)(C)C)C(C)(C)c1cn(C)c2ccccc12` [Example M22] the same measures were < 0.1 ×10⁻⁶ cm/s and 154 nM.
For `CN[C@H](C(=O)N[C@H](C(=O)N(C)[C@H](/C=C(\C)C(=O)N[C@H](CCC(=O)NCCCN1C(=O)C=CC1=O)C(=O)O)C(C)C)C(C)(C)C)C(C)(C)c1cn(C)c2ccccc12` [Example M23] the same measures were < 0.1 ×10⁻⁶ cm/s and 49.7 nM.
For `CN[C@H](C(=O)N[C@H](C(=O)N(C)[C@H](/C=C(\C)C(=O)N[C@H](CC(=O)O)C(=O)NCCN1C(=O)C=CC1=O)C(C)C)C(C)(C)C)C(C)(C)c1cn(C)c2ccccc12` [Example M24] the same measures were < 0.1 ×10⁻⁶ cm/s and 166 nM.
As for `CN[C@H](C(=O)N[C@H](C(=O)N(C)[C@H](/C=C(\C)C(=O)N[C@H](CCC(=O)O)C(=O)NCCN1C(=O)C=CC1=O)C(C)C)C(C)(C)C)C(C)(C)c1cn(C)c2ccccc12` [Example M25], the Papp at 4 h in data set [1] was < 0.1 ×10⁻⁶ cm/s. In addition, in data set [2], the IC50 amounted to 140 nM.
For `CN[C@H](C(=O)N[C@H](C(=O)N(C)[C@H](/C=C(\C)C(=O)N[C@H](CCC(=O)N[C@@H](CCCCNC(=O)CCN1C(=O)C=CC1=O)C(=O)O)C(=O)O)C(C)C)C(C)(C)C)C(C)(C)c1cn(C)c2ccc(F)cc12` [Example M26] the same measures were < 0.1 ×10⁻⁶ cm/s and 80.1 nM.
For `CN[C@H](C(=O)N[C@H](C(=O)N(C)[C@H](/C=C(\C)C(=O)N[C@@H](CCCCNC(=O)CCCN1C(=O)C=CC1=O)C(=O)O)C(C)C)C(C)(C)C)C(C)(C)c1cn(C)c2ccccc12` [Example M27] the same measures were < 0.1 ×10⁻⁶ cm/s and 192 nM.
For `CN[C@H](C(=O)N[C@H](C(=O)N(C)[C@H](/C=C(\C)C(=O)NCCCC[C@@H](NC(=O)CCCN1C(=O)C=CC1=O)C(=O)O)C(C)C)C(C)(C)C)C(C)(C)c1ccccc1` [Example M28] the same measures were < 0.1 ×10⁻⁶ cm/s and 50.8 nM.
Consider `C/C(=C\[C@H](C(C)C)N(C)C(=O)[C@@H](NC(=O)[C@H]1CCCCN1C(=O)CCN1C(=O)C=CC1=O)C(C)(C)C)C(=O)N[C@H](CCC(=O)O)C(=O)O` [Example M29], for which, in data set [1], the Papp at 4 h is < 0.1 ×10⁻⁶ cm/s. Besides, the half-maximal inhibitory concentration (IC50) in data set [2] is > 1000 nM.
Take `CNC(C(=O)N[C@H](C(=O)N(C)[C@H](/C=C(\C)C(=O)N[C@H](CCC(=O)O)C(=O)O)C(C)C)C(C)(C)C)C(C)(C)c1ccc(OC(=O)CCN2C(=O)C=CC2=O)cc1` (stereo partly drawn) [Example M30]: the Papp at 4 h in data set [1] was < 0.1 ×10⁻⁶ cm/s.
On to `CN[C@H](C(=O)N[C@H](C(=O)N(C)[C@H](/C=C(\C)C(=O)N[C@H](CCC(=O)NCCN1C(=O)C=CC1=O)C(=O)O)C(C)C)C(C)(C)C)C(C)(C)c1cccc(C(F)(F)F)c1` [Example M31], for which the Papp at 4 h in data set [1] came out at 1 ×10⁻⁶ cm/s. Besides, the IC50 in data set [2] was 197 nM.
With `CN[C@H](C(=O)N[C@H](C(=O)N(C)[C@H](/C=C(\C)C(=O)N[C@H](CCC(=O)NCCN1C(=O)C=CC1=O)C(=O)O)C(C)C)C(C)(C)C)C(C)(C)c1cccc(F)c1` [Example M32], in data set [1], the Papp at 4 h amounted to 0.6 ×10⁻⁶ cm/s. Also, the IC50 in data set [2] was determined as 616 nM.
For `CN[C@H](C(=O)N[C@H](C(=O)N(C)[C@H](/C=C(\C)C(=O)N[C@H](CCC(=O)NCCN1C(=O)C=CC1=O)C(=O)O)C(C)C)C(C)(C)C)C(C)(C)C1CCCCC1` [Example M33] the same measures were < 0.1 ×10⁻⁶ cm/s and 228 nM.
In the case of `C/C(=C\[C@H](C(C)C)N(C)C(=O)[C@@H](NC(=O)[C@@H](N(C)C)C(C)(C)c1ccccc1)C(C)(C)C)C(=O)N[C@H](CCC(=O)NCCN1C(=O)C=CC1=O)C(=O)O` [Example M49, N^2—((S,E)-4-((S)-2-((S)-2-(Dimethylamino)-3-methyl-3-phenylbutanamido)-N,3,3-trimethylbutanamido)-2,5-dimethylhex-2-enoyl)-N^5-(2-(2,5-dioxo-2,5-dihydro-1H-pyrrolo-1-yl)ethyl)-D-glutamine], the IC50 in data set [2] was > 1000 nM.
